Assay type in all cases: physicochemical
Data set [1] is described as follows: Potentiometric titration of OSI-7904 (Sirius Glpka autotitrator), with and without chloroform; solubility. An excerpt: The ability of OSI-7904 to partition into chloroform as a function of pH was studied using a Sirius Glpka autotitrator. Attempts were first made to determine the pKas of the OSI-7904 drug substance using the Sirius autotitrator, since these values are required when determining the partition coefficients by potentiometric titration. […] It is usual practice, with a compound of low solubility, to titrate the compound with various amounts of cosolvent present to determine apparent pKas and then perform an extrapolation back to 100% aqueous to calculate the true thermodynamic pKa. However, even with cosolvent (methanol) present, precipitation of the drug was still a problem and reproducible data sets were not obtained. […] As a result, extraction of OSI-7904 with chloroform is not a practical proposition since large volumes of chloroform would be required to solubilise the drug.
In this case, the Bjerrum plot is for the titration of 10 mL of 0.33 mM OSI-7904 aqueous solution in the presence of 5 mL chloroform. Titration started at low pH. The sharp change in slope at pH˜4.5 and lack of symmetry in the curve is indicative of undissolved compound present which then dissolves as the pH is increased.

The nature of data set [2]: Partitioning of HSPC and cholesterol into chloroform in the presence of OSI-7904. The note with it: for retained in the aqueous phase: first extraction, 17 mg/mL OSI-7904 with ~0.5 mg/mL HSPC:cholesterol mix, 1:3 CHCl3:Aq, shaking 1 hour; for amounts retained in the aqueous phase: second extraction with chloroform of the aqueous phase. On the procedure:
A 17 mg/mL OSI-7904 solution containing ˜0.5 mg/mL, 2:1 molar ratio HSPC:cholesterol mix was produced and extracted by mechanical shaking for 1 hour with chloroform at the 1:3 (CHCl3:Aq) ratio. Before partition the aqueous phase was hazy and yellow in color. After extraction the upper aqueous phase was clear and yellow.
The upper aqueous phase was analyzed for HSPC, cholesterol and OSI-7904. Approximately 94% of OSI-7904 was retained in the aqueous phase and approximately 2%, 8% and 8% retained of cholesterol, DSPC and PSPC respectively. This aqueous phase was extracted a second time with chloroform. The amounts retained in the aqueous phase for PSPC, DSPC and cholesterol were approximately 65%, 100% and 67% respectively for this second extraction.

Data set [3] can be described thus: Chloroform extraction of OSI-7904 solution with trace (saturated solution) HSPC and cholesterol. The settings on record: 1.2 mg/mL OSI-7904, trace HSPC and cholesterol; 1:3 CHCl3:Aq. The source says: The work above had been carried out with dispersions of solid HSPC:cholesterol. It was thought that the actual permeate would only contain materials in free solution. A better model for this was considered to be saturating some water with the HSPC:cholesterol mix, filtering out the solid and working with this clarified solution. A saturated solution prepared in this way typically contained only traces of cholesterol and HSPC. It was noticed however that on one occasion when the dispersion of HSPC:cholesterol in water had been stirred continuously for approximately four days, the filtrate was opalescent and not clear and the levels of the HSPC and cholesterol were much higher. It was thought the most likely explanation for this was that initially multilamellar liposomes were formed and these were filtered out leaving only HSPC and cholesterol that are in free solution or in micelles. On extending mixing, the multilamellar liposomes are broken down to smaller particles and these are able to pass through the pores of the filter.
A 1.2 mg/mL solution of OSI-7904 was prepared containing trace levels of HSPC and cholesterol in solution (no solid present). This was extracted with chloroform in the 1:3 ratio (8.8 mL:26.5 mL, CHCl3:Aq) by manually shaking for 1 min. […] The aqueous phase was filtered through a 0.45 μm aperture filter and analyzed for OSI-7904, cholesterol and HSPC by HPLC. […]

Data set [4] can be described thus: Partitioning of HSPC and cholesterol dispersions into chloroform. The note with it: 1:3 CHCl3:Aq volume ratio, HPLC; for extraction efficiency with chloroform: 0.1 mg/mL cholesterol:HSPC dispersion. On the procedure:
Concentrations of 1 mg/mL and 0.1 mg/mL of the 2:1 molar ratio HSPC:cholesterol spray dried mix dispersions were produced. Then the mixes were extracted with chloroform and varying chloroform:aqueous ratios at 1:3, 1:1 and 3:1. […] The other ratios produced milky emulsions in the aqueous phase.
HSPC consists of two main components: PSPC (1-palmitoyl-2-stearoyl-sn-glyero-3-phosphocholine) and DSPC (1,2-distearoyl-sn-glycero-3-phosphocholine). […] For the 0.1 mg/mL dispersion the extraction was less efficient; being ˜95% for cholesterol, ˜63% for PSPC and ˜24% for DSPC.

Structures are written as SMILES.

`Cc1nc2ccc3ccc(CNc4ccc5c(c4)CN([C@@H](CCC(=O)O)C(=O)O)C5=O)cc3c2c(=O)[nH]1` [OSI-7904]: in data set [1] (at low pHs), the “solubility in aqueous media” value was “very insoluble”. In data set [1] (even at low pH, titration in presence of chloroform), the solubility in chloroform result is given as “very low”. Also, in data set [1] (with aqueous solution present during titration, organic solvent or mixture, from Bjerrum plot, titration of 10 mL 0.33 mM aqueous solution in presence of 5 mL chloroform), the solubility (commonly the concentration that dissolves in the medium under given conditions) is < 400 µg/mL. The “retained in the aqueous phase” value in data set [2] is listed as “Approximately 94%”.
Consider `CC(C)CCC[C@@H](C)[C@H]1CC[C@H]2[C@@H]3CC=C4C[C@@H](O)CC[C@]4(C)[C@H]3CC[C@]12C` [cholesterol], for which the “change in concentration in the aqueous phase after extraction with chloroform” value in data set [3] was “no decrease”. In data set [2], the “retained in the aqueous phase” value is “approximately 2%” and the “amounts retained in the aqueous phase” value is given as ~67%. Besides, the “extraction efficiency with chloroform” value in data set [4] is ~95%. Also, the “levels after extraction with chloroform” value in data set [4] (1 mg/mL cholesterol:HSPC dispersion) was “undetectable”.
Regarding `CCCCCCCCCCCCCCCCCC(=O)OC[C@H](COP(=O)([O-])OCC[N+](C)(C)C)OC(=O)CCCCCCCCCCCCCCCCC` [DSPC, 1,2-distearoyl-sn-glycero-3-phosphocholine], in data set [2], the “retained in the aqueous phase” value is ~8% and the “amounts retained in the aqueous phase” value is reported as ~100%. Further, the “extraction efficiency with chloroform” value in data set [4] is ~24%.
Consider `CCCCCCCCCCCCCCCCCC(=O)O[C@H](COC(=O)CCCCCCCCCCCCCCC)COP(=O)([O-])OCC[N+](C)(C)C` [PSPC, 1-palmitoyl-2-stearoyl-sn-glyero-3-phosphocholine], for which, in data set [2], the “retained in the aqueous phase” value is recorded as ~8% and the “amounts retained in the aqueous phase” value is “approximately 65%”. In addition, the “extraction efficiency with chloroform” value in data set [4] is ~63%.

The values above are taken from US20060159735A1, “Method of reclaiming drug compound from liposomal drug manufacturing stream” (priority 2005, published 2006).
